How the values were obtained:
DIO male mice [1] = assay: Body weight of diet-induced obese mice under daily subcutaneous treatment; format: in vivo; conditions: daily subcutaneous injections, vs vehicle
Procedure: (§1) Six- to eight-week-old male C57Bl/6 mice were given ad libitum access to a high-fat, high-sugar diet comprising 58% kcal fat (D12331; Research Diets, New Brunswick, N.J.). The mice had free access to water and were maintained at 23±1° C., constant humidity and on a 12-h light-dark cycle. Mice were maintained under these conditions for a minimum of 20 weeks before study initiation. At study start, mice were randomized into groups matched for body weight and body composition. Compounds were administered subcutaneously 1 h before the onset of the dark phase. Co-administration of compounds was administered by single formulated injections. Assessment of energy intake, energy expenditure and home-cage activity were performed using an indirect calorimetry system (TSE Phenotmaster, TSE Systems, Bad Homburg, Germany).
To assess the effect of icilin alone on the body weight and food intake, DIO male mice were treated 16 days with vehicle (control) or icilin (0.6 mg/kg or 6 mg/kg). […] Compounds were administered by daily subcutaneous injections.
To assess the effect of the combination therapy on the body weight, DIO male mice were treated 4 days with vehicle (control), DMPP alone (10 mg/kg), icilin alone (5 mg/kg) or DMPP (10 mg/ml)+icilin (5 mg/kg). Compounds were administered by daily subcutaneous injections. […]

DIO male mice [2] = conditions: 14 days, DMPP 1 mg/kg, 5 mg/kg or 10 mg/ml, daily subcutaneous injections, vs vehicle
Procedure: as §1
To assess the effect of DMPP alone on the body weight and food intake, diet-induced obese (DIO) male mice were treated 14 days with vehicle (control) or DMPP (1 mg/kg, 5 mg/kg or 10 mg/ml). Compounds were administered by daily subcutaneous injections.

DIO male mice [3] = assay: Glucose tolerance (intraperitoneal glucose challenge) in DIO mice; format: in vivo; conditions: 7-days treatment, daily subcutaneous injections, vs vehicle
Procedure: We also investigated the effect of DMPP alone on glucose tolerance and area under the curve (AUC). Glucose tolerance was assessed following 7-days treatment of DIO male mice with vehicle (control) or DMPP (1 mg/kg, 5 mg/kg or 10 mg/ml). Compounds were administered by daily subcutaneous injections.
Glucose tolerance was assessed following 7-days treatment of DIO male mice with vehicle (control) or icilin (6 mg/kg). […] Compounds were administered by daily subcutaneous injections.
Glucose tolerance was assessed following 7-days treatment of DIO male mice with vehicle (control), DMPP alone (10 mg/kg), icilin alone (5 mg/kg) or DMPP (10 mg/ml)+icilin (5 mg/kg). Compounds were administered by daily subcutaneous injections.

DIO male mice [4] = assay: Energy expenditure (indirect calorimetry) in DIO mice; format: in vivo; conditions: 5-days treatment, icilin 6 mg/kg, daily subcutaneous injections, vs vehicle
Procedure: To assess the effect of icilin alone on the body weight and food intake, DIO male mice were treated 16 days with vehicle (control) or icilin (0.6 mg/kg or 6 mg/kg). The results of these treatments are shown in FIGS. 3(A) and 3(B) (control: white circle; icilin: 0.6 mg/kg (star) or 6 mg/kg (black circle)). The effect on energy expenditure was investigated by a 5-days treatment of DIO male mice with vehicle (control) or icilin (6 mg/kg). Compounds were administered by daily subcutaneous injections. The results of these treatments are shown in FIG. 3(C) (control: white bar; icilin: black bar).

DIO male mice [5] = assay: Fasting glucose in DIO mice; format: in vivo; conditions: 23-days treatment, icilin 6 mg/kg, daily subcutaneous injections, vs vehicle
Procedure: Glucose tolerance was analyzed in 6 h fasted mice, following an intraperitoneal challenge with 1.5 g glucose per kg body weight. Glucose levels were measured in blood sampled from the tail veins before (0 min) and at 15, 30, 60 and 120 min post injection. To measure glucose-stimulated insulin secretion blood was collected from tail veins into EDTA-coated microvette tubes (Sarstedt) at time points 0, 15 and 60 min post glucose injection. Insulin sensitivity was assessed in 6 h fasted mice following an intraperitoneal injection of 0.7 U of insulin (Actrapid) per kg body weight. Blood glucose levels were measured before (0 min) and at 15, 30, 60 and 120 minutes after the insulin injection. Insulin was measured with commercially available kit (ALPCO Diagnostics, Salem, N.H.) per the manufacturer's instructions.
Glucose tolerance was assessed following 7-days treatment of DIO male mice with vehicle (control) or icilin (6 mg/kg). The results are shown in FIG. 3(D) (control: white; icilin: black). Fasting glucose was assessed following 23-days treatment of DIO male mice with vehicle (control) or icilin (6 mg/kg). Compounds were administered by daily subcutaneous injections. The results are shown in FIG. 3(E) (control: white bar; icilin: black bar).

| SMILES | effect on body weight (DIO male mice [1]; 14 days, DMPP 1 mg/kg, 5 mg/kg or 10 mg/ml) | effect on food intake (DIO male mice [2]) | effect on glucose tolerance and area under the curve (AUC) (DIO male mice [3]; DMPP 1 mg/kg, 5 mg/kg or 10 mg/ml) | effect on energy expenditure (DIO male mice [4]) | effect on body weight (DIO male mice [1]; 16 days, icilin 0.6 mg/kg or 6 mg/kg) | effect on glucose tolerance (DIO male mice [3]; icilin 6 mg/kg) | effect on fasting glucose (DIO male mice [5]) |
| --- | --- | --- | --- | --- | --- | --- | --- |
| C[N+]1(C)CCN(c2ccccc2)CC1 [DMPP, dimethylphenylpiperazinium] | dose-dependent weight lowering effect | reduction in food intake | dose-dependent improvement in glucose tolerance |  |  |  |  |
| O=C1NC(c2cccc([N+](=O)[O-])c2)=CCN1c1ccccc1O [icilin, 3-(2-hydroxyphenyl)-6-(3-nitrophenyl)-3,4-dihydropyrimidin-2(1H)-one] |  |  |  | increased energy expenditure | dose-dependent weight loss | does not lead to a short term improvement in glucose tolerance | improved fasting glucose levels |

Reference: patent US10568852B2, “Combination compositions and their use in methods for treating obesity and obesity-related disorders” (Helmholtz Zentrum Munchen—Deutsches Forschungszentrum fur …, priority 2015, dated 2020)
